Source: paper PMC8953563, “A Study on the Effect of the Substituent against PAK4 Inhibition Using In Silico Methods” (International Journal of Molecular Sciences, 2022)
Like-named read-outs stand apart in the source and are kept apart here.

Molecular target: PAK4 (Homo sapiens, UniProt O96013)
Experiment: radiometric [γ-33P]-ATP kinase assay (Eurofins KinaseProfiler), myelin basic protein substrate
Type: biochemical

PAK4, sequence (O96013 whole entry): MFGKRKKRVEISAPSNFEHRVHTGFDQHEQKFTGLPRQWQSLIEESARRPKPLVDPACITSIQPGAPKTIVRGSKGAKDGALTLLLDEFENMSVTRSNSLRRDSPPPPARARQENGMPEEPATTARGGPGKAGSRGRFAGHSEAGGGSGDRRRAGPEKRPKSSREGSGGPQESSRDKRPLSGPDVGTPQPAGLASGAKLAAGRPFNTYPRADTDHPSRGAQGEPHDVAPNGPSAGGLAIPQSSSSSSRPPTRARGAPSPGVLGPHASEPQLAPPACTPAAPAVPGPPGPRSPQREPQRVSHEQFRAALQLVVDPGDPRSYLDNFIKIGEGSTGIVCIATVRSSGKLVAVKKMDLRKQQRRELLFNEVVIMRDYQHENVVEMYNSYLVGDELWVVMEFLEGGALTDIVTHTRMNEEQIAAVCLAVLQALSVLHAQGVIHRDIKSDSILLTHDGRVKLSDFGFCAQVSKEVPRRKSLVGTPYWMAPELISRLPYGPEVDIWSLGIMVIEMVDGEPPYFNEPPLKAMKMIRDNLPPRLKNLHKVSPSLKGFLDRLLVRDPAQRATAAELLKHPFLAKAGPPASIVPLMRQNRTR

Row | Structure (SMILES) | IC50 (read-out: 1) [µM] | IC50 (read-out: 2) [µM]
1 | CC(C)c1nn(C)cc1-c1nc2cc(Br)cnc2[nH]1 [compound 1, 6-bromo-2-(3-isopropyl-1-methyl-1H-pyrazol-4-yl)-3H-imidazo[4,5-b]pyridine] | 5.15 | –
2 | CC(C)c1nn(C)cc1-c1nc2cc(Cl)cnc2[nH]1 [compound 2, 6-chloro-2-(3-isopropyl-1-methyl-1H-pyrazol-4-yl)-3H-imidazo[4,5-b]pyridine] | – | 8.53
